In general, EC50 refers to the concentration at which the effect is half-maximal.

Where only a bound is given, the exact number is not on record here.

One assay concerns the target T1, RORγ ligand-binding domain fused to Gal4 (Homo sapiens, UniProt P51449).
T1 construct: Gal4 (galactose-responsive transcription factor); expressed in transfected cells; host or cells: HEK293
T1 sequence (P51449 269-508 limits assumed): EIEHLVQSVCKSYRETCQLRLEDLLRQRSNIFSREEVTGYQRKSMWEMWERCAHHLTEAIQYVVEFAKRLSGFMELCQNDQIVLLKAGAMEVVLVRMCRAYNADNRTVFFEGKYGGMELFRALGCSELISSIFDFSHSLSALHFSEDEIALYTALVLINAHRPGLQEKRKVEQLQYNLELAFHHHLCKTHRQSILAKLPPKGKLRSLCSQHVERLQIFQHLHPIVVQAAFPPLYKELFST
The assay is described as follows: RORγ Reporter Assay (Gal4). As to conditions: HEK293 cells co-transfected with RORγ LBD-Gal4 and luciferase reporter; 24 h incubation; absolute EC50; read-out: EC50. In kind it is cell-based. The method, then:
The HEK293 cell line is co-transfected transiently with two plasmids, one with the RORγ ligand-binding domain fused to galactose-responsive transcription factor (Gal4), and the other with the luciferase reporter gene and Gal binding sites (UAS). This construction allows to determine the RORγ activity in a cellular system through the measurement of luminescence.
A suspension of RORγ reporter cells was dispensed into plates and cultured 2 h at 37° C. and 5% CO2. Media formulation consisted in DMEM/F-12 medium (Gibco) supplemented with 10% heat inactivated FBS (Sigma-Aldrich), non-essential aminoacids (Sigma-Aldrich), 2 mM Glutamax (Gibco) and 100 U/mL penicillin (Sigma-Aldrich). Dose-response curves with compounds were prepared in 100% DMSO and further diluted 100-fold in culture medium. Compound solutions were added to the plate containing cells (final DMSO concentration of 0.1%) and incubated for 24 h at 37° C. and 5% CO2. Luciferase detection reagent was added to each well, and relative light units (RLUs) were quantified from each assay well using a plate reading luminometer.
Values of average RLU±S.D. were computed for all treatment sets, followed by the calculations of percent-reduction of RORγ activity in response to respective test compound. The following formula was used: activity=100*[1−[x test compound/average vehicle] where the theoretical minimum reduction (0% reduction).
Background: A reporter such as luciferase makes a cellular process visible.
In the case of `NC(=O)CN1CC[C@@](O)(CNc2ncnc(N(Cc3ccc(C(O)(C(F)(F)F)C(F)(F)F)cc3)C3CC3)c2F)[C@H](O)C1` (relative stereo) [Example D5-06, rel-2-((3R,4R)-4-(((6-(cyclopropyl(4-(1,1,1,3,3,3-hexafluoro-2-hydroxypropan-2-yl)benzyl)amino)-5-fluoropyrimidin-4-yl)amino)methyl)-3,4-dihydroxypiperidin-1-yl)acetamide], the EC50 was determined as 16 nM.

In the case of `NC(=O)CN1CC[C@H](CNc2ncnc(N(Cc3ccc(OC(F)F)cc3F)C3CCC3)c2F)[C@@H](O)C1` (stereo in doubt) [Example A7-15-2, rel-2-((3R,4R)-4-(((6-(cyclobutyl(4-(difluoromethoxy)-2-fluorobenzyl)amino)-5-fluoropyrimidin-4-yl)amino)methyl)-3-hydroxypiperidin-1-yl)acetamide], the EC50 was 310 nM.

Take `CCN(Cc1ccc(C(F)(F)F)cc1F)c1ncnc(NC[C@]2(O)CCN(CC(N)=O)C[C@H]2O)c1F` (single isomer, unassigned) [Example D5-03-1-2]: the EC50 amounted to 9.3 nM.

On to `NC(=O)CN1CC[C@@](O)(CNc2ncnc(N(Cc3ccc(C(F)(F)F)cc3)C3CC3)c2F)[C@H](O)C1` (single isomer, unassigned) [Example D5-02-1-2], for which the concentration giving a half-maximal response (EC50) amounted to 61 nM.

In the case of `NC(=O)C(CO)N1CCC(CNc2ncnc(N(Cc3ccc(C(F)(F)F)cc3)C3CC3)c2F)CC1` (stereo not drawn) [Example A7-64, 2-(4-(((6-(cyclopropyl(4-(trifluoromethyl)benzyl)amino)-5-fluoropyrimidin-4-yl)amino)methyl)piperidin-1-yl)-3-hydroxypropanamide], the EC50 was 73 nM.

`NC(=O)CN1CC[C@H](CNc2ncnc(N(Cc3ccc(C(F)(F)F)cc3F)C3CC3)c2F)[C@@H](O)C1` (racemic) [Example A7-22, rac-2-((3R,4R)-4-(((6-(cyclopropyl(2-fluoro-4-(trifluoromethyl)benzyl)amino)-5-fluoropyrimidin-4-yl)amino)methyl)-3-hydroxypiperidin-1-yl)acetamide]: the EC50 worked out at 4 nM.

On to `NC(=O)CN1CC[C@@H](CNc2ncnc(N(Cc3ccc(C(F)(F)F)cc3)C3CC3)c2F)[C@@H](O)C1` (racemic) [Example A7-49, rac-2-((3R,4S)-4-(((6-(cyclopropyl(4-(trifluoromethyl)benzyl)amino)-5-fluoropyrimidin-4-yl)amino)methyl)-3-hydroxypiperidin-1-yl)acetamide], for which the EC50 was 168 nM.

`CC(F)(F)c1ccc(CN(c2ncnc(NC[C@@H]3CCN(CC(N)=O)C[C@H]3O)c2F)C2CC2)cn1` (single isomer, unassigned) [Example A7-29-1]: the EC50 worked out at 35 nM.

Take `NC(=O)CN1CC[C@@H](CNc2ncnc(N(Cc3ccc(C(F)(F)F)nc3)C3CCC3)c2F)[C@H](O)C1` (racemic) [Example A7-23, rac-2-((3R,4R)-4-(((6-(cyclobutyl((6-(trifluoromethyl)pyridin-3-yl)methyl)amino)-5-fluoropyrimidin-4-yl)amino)methyl)-3-hydroxypiperidin-1-yl)acetamide]: the EC50 came out at 81 nM.

Consider `NC(=O)CN1CC[C@H](CNc2ncnc(N(Cc3cnc(C(F)(F)F)nc3)C3CCC3)c2F)[C@@H](O)C1` (single isomer, unassigned) [Example A7-18-1], for which the EC50 came out at 140 nM.

Regarding `NC(=O)CN1CC[C@@H](CNc2ncnc(N(Cc3ccc(C(F)(F)F)nc3)C3CCC3)c2F)[C@H](O)C1` (single isomer, unassigned) [Example A7-23-1], the EC50 is 81 nM.

For `NC(=O)CN1CCC(CNc2ncnc(N(Cc3ccc(C(F)(F)F)cc3)C3CC3)c2F)C(C(F)(F)F)C1` (single isomer, unassigned) [Example A7-07-1, 2-(4-(((6-(cyclopropyl(4-(trifluoromethyl)benzyl)amino)-5-fluoropyrimidin-4-yl)amino)methyl)-3-(trifluoromethyl)piperidin-1-yl)acetamide], the EC50 is 49 nM.

For the compound `Cc1cc(CN(c2ncnc(NCC3CCN(CC(N)=O)CC3)c2F)C2CC2)c(C)cc1Cl` [Example A7-46, 2-(4-(((6-((4-chloro-2,5-dimethylbenzyl)(cyclopropyl)amino)-5-fluoropyrimidin-4-yl)amino)methyl)piperidin-1-yl)acetamide], the 50% effective concentration (EC50) was > 1000 nM.

Regarding `NC(=O)CN1CCC(CNc2ncnc(N(Cc3ccc(C(F)(F)F)cc3)C3CC3)c2F)(c2nc[nH]n2)CC1` [Example A7-80, 2-(4-(((6-(Cyclopropyl(4-(trifluoromethyl)benzyl)amino)-5-fluoropyrimidin-4-yl)amino)methyl)-4-(1H-1,2,4-triazol-3-yl)piperidin-1-yl)acetamide], the EC50 came out at 53 nM.

For the compound `NC(=O)CN1CCC(CNc2ncnc(N(Cc3ccc(C(F)(F)F)cn3)C3CC3)c2F)CC1` [Example A7-35, 2-(4-(((6-(cyclopropyl((5-(trifluoromethyl)pyridin-2-yl)methyl)amino)-5-fluoropyrimidin-4-yl)amino)methyl)piperidin-1-yl)acetamide], the EC50 stood at 310 nM.

On to `NC(=O)CN1CC[C@H](CNc2ncnc(N(Cc3cnc(C(F)(F)F)nc3)C3CC3)c2F)[C@@H](O)C1` (single isomer, unassigned) [Example A7-17-1], for which the EC50 came to 40 nM.

Take `NC(=O)CN1CC[C@@H](CNc2ncnc(N(Cc3ccc(C(F)F)nc3)C3CC3)c2F)[C@H](O)C1` (stereo in doubt) [Example A7-25, rac-2-((3R,4R)-4-(((6-(cyclopropyl((6-(difluoromethyl)pyridin-3-yl)methyl)amino)-5-fluoropyrimidin-4-yl)amino)methyl)-3-hydroxypiperidin-1-yl)acetamide]: the EC50 was determined as 330 nM.

As for `NC(=O)CN1CC[C@@H](CNc2ncnc(N(Cc3ccc(C(F)(F)F)cc3)C3CCC3)c2F)[C@H](O)C1` (single isomer, unassigned) [Example A7-16-1], the EC50 came out at 25 nM.

Consider `NC(=O)CN1CC[C@H](CNc2ncnc(N(Cc3cnc(C(F)(F)F)nc3)C3CCC3)c2F)[C@@H](O)C1` (racemic) [Example A7-18, rac-2-((3R,4R)-4-(((6-(cyclobutyl((2-(trifluoromethyl)pyrimidin-5-yl)methyl)amino)-5-fluoropyrimidin-4-yl)amino)methyl)-3-hydroxypiperidin-1-yl)acetamide], for which the EC50 was found to be 130 nM.

`NC(=O)CN1CCC(CNc2ncnc(N(Cc3ccc4c(c3)OCC(=O)N4)C3CC3)c2F)CC1` [Example A7-37]: the EC50 is 670 nM.

As to `NC(=O)CN1CC[C@@H](CNc2ncnc(N(Cc3ccc(OC(F)F)cc3F)C3CCC3)c2F)[C@H](O)C1` (stereo in doubt) [Example A7-15, rac-2-((3R,4R)-4-(((6-(cyclobutyl(4-(difluoromethoxy)-2-fluorobenzyl)amino)-5-fluoropyrimidin-4-yl)amino)methyl)-3-hydroxypiperidin-1-yl)acetamide], the EC50 is 160 nM.

In the case of `CCN(Cc1ccc(-c2cnn(C)c2)cc1)c1ncnc(NC[C@@H]2CCN(CC(N)=O)C[C@H]2O)c1F` (racemic) [Example A7-72, rac-2-((3R,4R)-4-(((6-(ethyl(4-(1-methyl-1H-pyrazol-4-yl)benzyl)amino)-5-fluoropyrimidin-4-yl)amino)methyl)-3-hydroxypiperidin-1-yl)acetamide], the EC50 was 52 nM.

In the case of `CC(c1ccc(C(F)(F)F)cc1)N(c1ncnc(NCC2CCN(CC(N)=O)CC2)c1F)C1CC1` (stereo not drawn) [Example A7-34, 2-(4-(((6-(cyclopropyl(1-(4-(trifluoromethyl)phenyl)ethyl)amino)-5-fluoropyrimidin-4-yl)amino)methyl)piperidin-1-yl)acetamide], the EC50 was 90 nM.

As for `CCN(Cc1ccc(C(F)(F)F)cn1)c1ncnc(NC[C@@H]2CCN(CC(N)=O)C[C@H]2O)c1F` (racemic) [Example A7-27, rac-2-((3R,4R)-4-(((6-(ethyl((5-(trifluoromethyl)pyridin-2-yl)methyl)amino)-5-fluoropyrimidin-4-yl)amino)methyl)-3-hydroxypiperidin-1-yl)acetamide], the EC50 was found to be 540 nM.

As for `NC(=O)CN1CCC(CNc2ncnc(N(Cc3ccc(C(F)(F)F)cc3)C3CC3)c2F)C(C(F)(F)F)C1` (single isomer, unassigned) [Example A7-07-4, 2-(4-(((6-(cyclopropyl(4-(trifluoromethyl)benzyl)amino)-5-fluoropyrimidin-4-yl)amino)methyl)-3-(trifluoromethyl)piperidin-1-yl)acetamide], the EC50 stood at 170 nM.

The assay is the same for the next values; noted with them: compounds of the present disclosure; value from Table 2 herein; read-out: Gal4 assay EC50.
For `NC(=O)CN1CC[C@H](CNc2ncnc(N(Cc3cnc(C(F)(F)F)nc3)C3CC3)c2F)[C@@H](O)C1` (single isomer, unassigned) [Example A7-17-1], the EC50 was < 100 nM.

As for `CC(c1ccc(C(F)(F)F)cc1)N(c1ncnc(NCC2CCN(CC(N)=O)CC2)c1F)C1CC1` (stereo not drawn) [Example A7-34, 2-(4-(((6-(cyclopropyl(1-(4-(trifluoromethyl)phenyl)ethyl)amino)-5-fluoropyrimidin-4-yl)amino)methyl)piperidin-1-yl)acetamide], the EC50 is < 100 nM.

Values taken from patent US12441704B2, “Compounds active towards nuclear receptors” (NUEVOLUTION A/S, priority 2019, dated 2025).
